Our source for the IC50 values is ChEMBL document CHEMBL4814061, “Novel Azaquinolones as PARP1 Inhibitors for Treating Cancer” (ACS Med Chem Lett, 2021).

The IC50 is the concentration that inhibits the measured activity by half.

Chain of Poly [ADP-ribose] polymerase 1 (P09874 whole entry): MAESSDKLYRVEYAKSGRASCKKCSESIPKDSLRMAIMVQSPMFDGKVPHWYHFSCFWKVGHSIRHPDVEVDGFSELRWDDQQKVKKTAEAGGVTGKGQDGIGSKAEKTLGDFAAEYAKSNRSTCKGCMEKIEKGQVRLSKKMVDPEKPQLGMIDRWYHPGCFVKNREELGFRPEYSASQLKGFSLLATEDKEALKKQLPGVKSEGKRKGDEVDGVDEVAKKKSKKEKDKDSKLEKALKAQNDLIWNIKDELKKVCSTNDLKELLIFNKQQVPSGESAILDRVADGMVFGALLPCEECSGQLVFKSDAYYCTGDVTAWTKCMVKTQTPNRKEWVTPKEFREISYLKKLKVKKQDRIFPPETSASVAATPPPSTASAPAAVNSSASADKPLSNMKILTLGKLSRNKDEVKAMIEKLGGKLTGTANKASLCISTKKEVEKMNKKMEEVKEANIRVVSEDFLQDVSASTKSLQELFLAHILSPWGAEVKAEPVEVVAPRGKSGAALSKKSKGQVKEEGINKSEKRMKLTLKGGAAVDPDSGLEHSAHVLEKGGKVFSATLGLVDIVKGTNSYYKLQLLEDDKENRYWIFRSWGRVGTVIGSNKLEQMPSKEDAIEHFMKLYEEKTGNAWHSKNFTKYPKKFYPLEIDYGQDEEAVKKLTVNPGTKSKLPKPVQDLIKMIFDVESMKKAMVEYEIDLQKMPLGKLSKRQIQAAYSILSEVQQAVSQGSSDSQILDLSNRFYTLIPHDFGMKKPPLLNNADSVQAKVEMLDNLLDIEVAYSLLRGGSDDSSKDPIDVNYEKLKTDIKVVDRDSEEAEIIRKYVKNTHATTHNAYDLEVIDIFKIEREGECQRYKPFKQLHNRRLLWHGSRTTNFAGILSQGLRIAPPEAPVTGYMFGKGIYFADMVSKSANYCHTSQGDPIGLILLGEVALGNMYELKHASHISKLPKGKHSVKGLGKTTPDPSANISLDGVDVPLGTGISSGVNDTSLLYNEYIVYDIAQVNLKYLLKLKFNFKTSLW

This experiment concerns the target Poly [ADP-ribose] polymerase 1 (Homo sapiens, UniProt P09874). Description: Inhibition of recombinant full length 6His-tagged PARP1 (unknown origin) incubated for 4 hrs by fluorescence anisotropy assay. A general note: Polarisation of emitted light reports the rotation of a fluorescent probe.
Take `CNC(=O)c1ccc(N2CCN(Cc3cc4[nH]c(=O)c(CCF)cc4cn3)CC2)cn1`: the IC50 is 2 nM.

For `CCc1cc2cnc(CN3CCN(c4ccc(C(=O)NC)nc4Cl)CC3)cc2[nH]c1=O`, the IC50 was found to be 3 nM.

As to `CNC(=O)c1ccc(N2CCN(Cc3cc4[nH]c(=O)c(CC(F)F)cc4cn3)CC2)c(F)n1`, the IC50 was 3 nM.

Turning to `CCc1cc2cnc(CN3CCN(c4ccc(C(=O)NC)nc4F)CC3)cc2[nH]c1=O`, the IC50 is 2 nM.

For the compound `CCc1cc2cnc(CN3CCN(c4ccc(C(N)=O)nc4)CC3)cc2[nH]c1=O`, the IC50 turned out to be 2 nM.
